Data: US9937198B2, “Multi-functional composition and preparation method and application thereof” (Suzhou Sciscape Bio-Pharmaceutical Technology Co., Ltd., priority 2013, dated 2018)
“And” between values parts separate entries of the source, which are not always exact repeats. Equal entries are not always repeated.

Tests used:
healthy volunteers = experiment: Effect on blood glucose level in normal people; assay type: in vivo, human; details: for effect on blood glucose level in normal people / Blood glucose level after administration: 200 mL oral; for Blood glucose level after administration / Blood glucose level before administration: individual healthy volunteers; for Blood glucose level before administration: fasting baseline
Procedure: Six healthy volunteers were fasted overnight and then were measured for fasting blood glucose. Thereafter, they were orally administered with 200 mL of the solution of Composition 1, or 200 mL of the solution of trehalose (0.15 g/mL), or 200 mL of the solution of validamycin (0.3 mg/mL), or 200 mL of distilled water, as stated in Table 3.2. The blood glucose level in every volunteer was tested before administration and 30 min, 60 min and 120 min post administration.

Male ICR mice = experiment: In vivo absorption: blood glucose in fasted normal mice after intragastric administration; details: for Blood glucose level after administration: 13.3 mL/kg intragastric; for Blood glucose level before administration: baseline, mice fasted 12 h; for blood glucose level compared to the blank control group: before or after administration, normal mice
Procedure: (§1) Male ICR mice, 8 weeks old, 20±2 g in body weight, were purchased from Beijing HFK Bioscience Co., Ltd.
The composition used in the present experiment example was the solution of Composition 1. In particular, 15 g of trehalose and 3 mg of validamycin were picked and then dissolved in 100 mL of sterile water for medical use to provide the solution of Composition 1 which was kept for future use.
After normally fed for 3 days, the mice fasted for 12 h with water sufficiently supplied. Then, they were randomly divided into 4 groups depending on the blood glucose, i.e., a blank control group, an administration group, and negative control group 1 and negative control group 2. The mice in the administration group were intragastrically given the solution of Composition 1 prepared in this experimental example at a dose of 13.3 mL/kg body weight while the mice in the blank control group were intragastrically given sterile water for medical use at a dose of 13.3 mL/kg body weight. In addition, the mice in negative control group 1 and 2 were respectively intragastrically given the solution of trehalose (0.15 g/mL) and the solution of validamycin (0.3 mg/mL) at the same dose of 13.3 mL/kg body weight. The blood glucose levels before administration and 10 min, 25 min, 40 min and 60 min post administration were measured respectively, and the results were shown in Table 2.

human skin = experiment: Determination of moisture content in human skin; assay type: in vivo
Excerpt: 1. Subjects and Materials
One hundred and ten people were selected from the volunteers who participating in this test. They were females at the age of 30 to 55 with skin moisture content below 12%.
Solutions of Composition 1 to 7 prepared in this example were used except that the sterile water for medical use was replaced with warm water.
By skin moisture content, the subjects were randomly divided into 11 groups, i.e., a blank control group, administration groups 1 to 7 and negative control groups 1 to 3. The subjects in administration groups 1 to 7 respectively took 200 mL of the solution of Compositions 1 to 7 twice a day at 9 am and 9 pm while the subjects in the blank control group took 200 mL of warm water at the same time. In addition, the subjects in negative control groups 1 to 3 respectively took 200 mL of the solution of trehalose (0.15 g/mL), 200 mL of the solution of validamycin (0.3 mg/mL) and 200 mL of the solution of algal polysaccharides (0.15 g/mL). The administration lasted for 30 days. Skin moisture content was determined before administration and after administration. The determination was conducted in a spacious and well ventilated examination room. When the subjects were calm, the location to be determined was cleaned with sterile cotton ball soaked with distilled water. Fifteen minutes after the location was wiped dry, the skin moisture content was determined by skin moisture tester under the trademark of “KAKUSAN”.

diabetic mice = experiment: Reduction of blood glucose in streptozotocin diabetic mice; assay type: in vivo; details: for Blood glucose level at different time points after administration: 13.3 mL/kg intragastric at 9 am and 9 pm every day; for Blood glucose level before administration: baseline, STZ diabetic mice
Procedure: as §1
Also, the solutions of Compositions 1-7 were used in this Example.
I. Modeling: Before experiment started, a 0.1 mol/L sodium citrate buffer (pH4.5) was prepared. It was sterilized in an autoclave and then stored in a refrigerator at 4° C. Before the modeling began, this sodium citrate buffer was used to freshly prepare a 10 mg/mL solution of streptozotocin (STZ) in an ice bath. The mice were fed normally for 3 days, and then they were intraperitoneally administered with the freshly prepared STZ solution at a dose of 45 mg/kg for 5 consecutive days once a day.
II. Treatment: After the model was successfully established, the mice had not been administered with streptozotocin solution were arranged in a group, i.e., the normal group, and normally fed. The diabetic mice were randomly divided into 11 groups depending on blood glucose level, the groups being a model group, administration groups 1 to 7 and negative control groups 1 to 3. The mice in administration groups 1 to 7 were respectively intragastrically given the solution of Composition 1 to 7 prepared in this Example at a dose of 13.3 mL/kg body weight. The mice in the model group were intragastrically given sterile water for medical use at a dose of 13.3 mL/kg body weight. The mice in negative control groups 1 to 3 were respectively intragastrically administered with the solution of trehalose (0.15 g/mL), the solution of validamycin (0.3 mg/mL) and the solution of algal polysaccharides (0.15 g/mL) at a dose of 13.3 mL/kg body weight. The administration was conducted at 9 am and 9 pm every day, and blood glucose level was checked by Roche blood glucose meter once every other week for 5 weeks.

[1] = test system: patients with type-II diabetes; experiment: Short-term experiment for treatment in human diabetics; assay type: in vivo; details: for effect on blood glucose level in patients with type-II diabetes, short-term / Blood glucose level after administration: 200 mL oral; for Blood glucose level after administration / Blood glucose level before administration: individual type-II diabetes patients; for Blood glucose level before administration: fasting baseline
Procedure: Six patients with type-II diabetes were fasted overnight and then measured for fasting blood glucose level. Then they were orally administered with 200 mL of the solution of Composition 1, or 200 mL of solution of trehalose (0.15 g/mL), or 200 mL of the solution of validamycin (0.3 mg/mL), or 200 mL of distilled water, as stated in Table 3.3. The blood glucose level in every patient was tested before administration and 30 min, 60 min and 120 min post administration.

[2] = 30 min, listed as Solution of validamycin
[3] = 60 min, listed as Solution of validamycin
[4] = 120 min, listed as Solution of validamycin
[5] = listed as Solution of validamycin
[6] = after administration, 200 mL twice a day for 30 days

| SMILES | effect on blood glucose level in normal people (healthy volunteers) | Blood glucose level after administration (Male ICR mice; 10 min) | Blood glucose level after administration (Male ICR mice; 25 min) | Blood glucose level after administration (Male ICR mice; 40 min) | Blood glucose level after administration (Male ICR mice; 60 min) | Blood glucose level before administration (Male ICR mice) | blood glucose level compared to the blank control group (Male ICR mice) | Skin moisture content (human skin; [6]) | Skin moisture content (human skin; before administration) | Blood glucose level at different time points after administration (diabetic mice; 1 week) | Blood glucose level at different time points after administration (diabetic mice; 2 weeks) | Blood glucose level at different time points after administration (diabetic mice; 3 weeks) | Blood glucose level at different time points after administration (diabetic mice; 4 weeks) | Blood glucose level at different time points after administration (diabetic mice; 5 weeks) | Blood glucose level before administration (diabetic mice) | effect on blood glucose level in patients with type-II diabetes, short-term [1] | further results |
| --- | --- | --- | --- | --- | --- | --- | --- | --- | --- | --- | --- | --- | --- | --- | --- | --- | --- |
| OCC1=C[C@H](N[C@H]2C[C@H](CO)[C@@H](O[C@@H]3O[C@H](CO)[C@@H](O)[C@H](O)[C@H]3O)[C@H](O)[C@H]2O)[C@H](O)[C@@H](O)[C@@H]1O [validamycin] | had not effect on the blood glucose level | 5.3 ± 0.45 mmol/L | 5.7 ± 0.56 mmol/L | 5.2 ± 0.23 mmol/L | 5.3 ± 0.20 mmol/L | 5.2 ± 0.44 mmol/L | no significant difference | 8.35 ± 0.47% | 8.21 ± 0.98% | 20.20 ± 2.11 mmol/L | 22.51 ± 2.28 mmol/L | 23.57 ± 2.06 mmol/L | 23.57 ± 1.07 mmol/L | 24.01 ± 1.25 mmol/L | 18.27 ± 2.13 mmol/L | had no influence on blood glucose level | Blood glucose level after administration (healthy volunteers; [2]): 6.3 mmol/L and 6.7 mmol/L; Blood glucose level after administration (healthy volunteers; [3]): 6.2 mmol/L and 6.6 mmol/L; Blood glucose level after administration (healthy volunteers; [4]): 5.9 mmol/L and 5.3 mmol/L; Blood glucose level before administration (healthy volunteers; [5]): 6.0 mmol/L and 5.3 mmol/L; Blood glucose level after administration [1, 2]: 9.5 mmol/L and 15.7 mmol/L; Blood glucose level after administration [1, 3]: 9.6 mmol/L and 16.1 mmol/L; Blood glucose level after administration [1, 4]: 9.1 mmol/L and 14.8 mmol/L; Blood glucose level before administration [1, 5]: 9.3 mmol/L and 15.5 mmol/L |
| OC[C@H]1O[C@H](O[C@H]2O[C@H](CO)[C@@H](O)[C@H](O)[C@H]2O)[C@H](O)[C@@H](O)[C@@H]1O [trehalose] | significantly raised blood glucose level | 6.4 ± 0.40 mmol/L | 9.5 ± 1.00 mmol/L | 11.0 ± 0.30 mmol/L | 9.5 ± 1.12 mmol/L | 4.9 ± 0.53 mmol/L | increased significantly | 8.52 ± 0.55% | 8.55 ± 0.68% | 22.15 ± 2.14 mmol/L | 24.50 ± 2.35 mmol/L | 25.33 ± 2.15 mmol/L | 26.47 ± 2.12 mmol/L | 27.16 ± 1.01 mmol/L | 18.40 ± 2.07 mmol/L | significantly raised the blood glucose level | Blood glucose level after administration (healthy volunteers; 30 min): 9.3 mmol/L; Blood glucose level after administration (healthy volunteers; 60 min): 8.4 mmol/L; Blood glucose level after administration (healthy volunteers; 120 min): 7.1 mmol/L; Blood glucose level before administration (healthy volunteers): 7.0 mmol/L; Blood glucose level after administration ([1]; 30 min): 25.5 mmol/L; Blood glucose level after administration ([1]; 60 min): 20.1 mmol/L; Blood glucose level after administration ([1]; 120 min): 17.3 mmol/L; Blood glucose level before administration [1]: 15.3 mmol/L |
